Test results published in ChEMBL document CHEMBL1932974, “Optimization of a novel kinase inhibitor scaffold for the dual inhibition of JAK2 and FAK kinases” (Bioorg Med Chem Lett, 2012).

Assays:
Focal adhesion kinase 1 [1] = biological target: T1, Focal adhesion kinase 1 (Homo sapiens, UniProt Q05397); assay: Inhibition of human recombinant FAK expressed in baculovirus expression system after 30 mins by time resolved fluorescence assay
[2] = biological target: T2, Tyrosine-protein kinase JAK2 (Homo sapiens, UniProt O60674); assay: Inhibition of human recombinant JAK2 expressed in baculovirus expression system after 20 mins by time resolved fluorescence assay
Focal adhesion kinase 1 [3] = biological target: T1, Focal adhesion kinase 1; assay: Inhibition of FAK in human 293GT cells after 1 hr by luminescence-based spectrophotometry; type: cell-based
[4] = biological target: T2, Tyrosine-protein kinase JAK2; assay: Inhibition of JAK2 in GM-CSF-stimulated human TF1 cells preincubated for 1 hr prior to challenge
[5] = Metabolic stability in human liver microsomes; type: ADME, Microsome; conditions: read-out: Stability
[6] = Metabolic stability in dog liver microsomes; type: ADME, Canis lupus familiaris, Microsome; conditions: read-out: Stability
[7] = Metabolic stability in rat liver microsomes; type: ADME, Microsome; conditions: read-out: Stability
[8] = Metabolic stability in mouse liver microsomes; type: ADME, Microsome; conditions: read-out: Stability
Insulin receptor = Insulin receptor (Homo sapiens, UniProt P06213); assay: Inhibition of insulin receptor
[9] = biological target: T3, Tyrosine-protein kinase JAK3 (Homo sapiens, UniProt P52333); assay: Inhibition of JAK3
T3 sequence (P52333 whole entry): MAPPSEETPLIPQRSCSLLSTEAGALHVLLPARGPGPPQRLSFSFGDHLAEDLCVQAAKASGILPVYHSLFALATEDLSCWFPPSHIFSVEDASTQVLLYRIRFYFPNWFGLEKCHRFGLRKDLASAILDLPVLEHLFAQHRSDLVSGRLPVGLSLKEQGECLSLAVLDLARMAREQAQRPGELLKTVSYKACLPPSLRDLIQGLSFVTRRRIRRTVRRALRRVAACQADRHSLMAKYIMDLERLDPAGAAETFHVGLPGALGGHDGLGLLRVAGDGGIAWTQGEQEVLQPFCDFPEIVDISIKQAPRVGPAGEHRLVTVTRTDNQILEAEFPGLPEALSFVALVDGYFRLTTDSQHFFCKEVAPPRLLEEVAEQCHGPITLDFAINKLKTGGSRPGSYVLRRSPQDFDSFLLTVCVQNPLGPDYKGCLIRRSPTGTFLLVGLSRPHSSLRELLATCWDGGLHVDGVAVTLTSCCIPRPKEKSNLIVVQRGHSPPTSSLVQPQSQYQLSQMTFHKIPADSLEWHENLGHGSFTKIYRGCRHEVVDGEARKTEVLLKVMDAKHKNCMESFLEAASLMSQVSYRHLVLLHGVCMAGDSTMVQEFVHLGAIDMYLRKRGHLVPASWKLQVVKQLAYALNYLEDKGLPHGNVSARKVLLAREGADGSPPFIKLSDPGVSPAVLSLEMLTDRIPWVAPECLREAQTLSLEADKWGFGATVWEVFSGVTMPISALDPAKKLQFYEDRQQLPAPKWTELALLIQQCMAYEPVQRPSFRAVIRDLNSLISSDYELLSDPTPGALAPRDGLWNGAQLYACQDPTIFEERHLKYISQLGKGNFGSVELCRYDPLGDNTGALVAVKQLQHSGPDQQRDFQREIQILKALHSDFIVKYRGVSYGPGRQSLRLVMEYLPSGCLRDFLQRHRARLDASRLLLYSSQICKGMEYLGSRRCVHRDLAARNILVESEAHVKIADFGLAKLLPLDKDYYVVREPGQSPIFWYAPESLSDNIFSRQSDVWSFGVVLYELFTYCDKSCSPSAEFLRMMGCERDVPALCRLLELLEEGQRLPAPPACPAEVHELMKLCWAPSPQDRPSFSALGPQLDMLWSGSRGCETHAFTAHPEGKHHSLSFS

Mus musculus [10] = assay: Inhibition of FAK phosphorylation in human CWR22 cells xenografted in mouse at 55 mg/kg, po administered as a single dose measured at 2 hrs; type: functional; conditions: CWR22, 2 h
[11] = Plasma protein binding in mouse; type: ADME, cell-free; conditions: read-out: PPB (converted)
Mus musculus [12] = assay: Inhibition of JAK2-mediated STAT3 phosphorylation in human CWR22 cells xenografted mouse at 55 mg/kg, po administered as a single dose measured up to 12 hrs; type: functional; conditions: CWR22, 12 h
[13] = Oral bioavailability in Sprague-Dawley rat at 5 mg/kg; type: ADME, organism-based; conditions: in vivo
[14] = AUC (0 to infinity) in Sprague-Dawley rat at 5 mg/kg, po; type: ADME, organism-based; design: time infinity, dose 5 mg/kg, route oral; conditions: plasma
[15] = Tmax in Sprague-Dawley rat at 5 mg/kg, po; type: ADME, organism-based; design: dose 5 mg/kg, route oral; conditions: in vivo
[16] = Cmax in Sprague-Dawley rat at 5 mg/kg, po; type: ADME, organism-based; design: dose 5 mg/kg, route oral; conditions: in vivo
[17] = Clearance in Sprague-Dawley rat at 1 mg/kg, iv; type: ADME, organism-based; design: dose 1 mg/kg, route intravenous; conditions: in vivo
[18] = Volume of distribution in Sprague-Dawley rat at 1 mg/kg, iv; type: ADME, organism-based; design: dose 1 mg/kg, route intravenous; conditions: in vivo
[19] = AUC (0 to t) in Sprague-Dawley rat at 1 mg/kg, iv; type: ADME, organism-based; design: dose 1 mg/kg, route intravenous; conditions: plasma
[20] = Half life in Sprague-Dawley rat at 1 mg/kg, iv; type: ADME, organism-based; design: dose 1 mg/kg, route intravenous; conditions: in vivo

T2 sequence (O60674 whole entry): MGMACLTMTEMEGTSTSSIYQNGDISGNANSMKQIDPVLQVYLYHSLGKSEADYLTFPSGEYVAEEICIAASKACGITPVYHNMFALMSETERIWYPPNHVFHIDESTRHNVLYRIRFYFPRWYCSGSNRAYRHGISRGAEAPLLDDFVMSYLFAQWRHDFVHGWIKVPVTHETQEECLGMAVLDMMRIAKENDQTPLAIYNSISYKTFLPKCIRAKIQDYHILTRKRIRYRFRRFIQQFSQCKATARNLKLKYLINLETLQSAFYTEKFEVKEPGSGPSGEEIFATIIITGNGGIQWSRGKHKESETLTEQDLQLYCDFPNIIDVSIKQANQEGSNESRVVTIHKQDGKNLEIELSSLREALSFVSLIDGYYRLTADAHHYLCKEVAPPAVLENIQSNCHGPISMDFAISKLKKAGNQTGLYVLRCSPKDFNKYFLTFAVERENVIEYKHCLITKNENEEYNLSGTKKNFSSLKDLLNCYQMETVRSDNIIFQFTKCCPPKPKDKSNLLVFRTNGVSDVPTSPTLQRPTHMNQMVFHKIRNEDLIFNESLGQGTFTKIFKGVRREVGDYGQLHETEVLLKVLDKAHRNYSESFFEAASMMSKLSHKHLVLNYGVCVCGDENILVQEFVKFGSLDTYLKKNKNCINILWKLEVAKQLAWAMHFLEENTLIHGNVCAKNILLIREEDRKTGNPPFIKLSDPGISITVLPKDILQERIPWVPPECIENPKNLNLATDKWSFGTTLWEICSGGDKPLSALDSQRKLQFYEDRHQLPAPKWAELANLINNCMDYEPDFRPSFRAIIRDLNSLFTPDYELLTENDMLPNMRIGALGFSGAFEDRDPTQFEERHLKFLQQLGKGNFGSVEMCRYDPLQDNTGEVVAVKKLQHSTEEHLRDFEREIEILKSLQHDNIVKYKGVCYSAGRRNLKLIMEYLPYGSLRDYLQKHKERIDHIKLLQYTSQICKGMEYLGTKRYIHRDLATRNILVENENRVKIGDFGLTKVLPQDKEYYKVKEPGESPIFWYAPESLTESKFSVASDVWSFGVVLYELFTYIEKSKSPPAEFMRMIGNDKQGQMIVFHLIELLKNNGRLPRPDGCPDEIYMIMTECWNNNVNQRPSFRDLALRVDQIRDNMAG
T1 sequence (Q05397 whole entry): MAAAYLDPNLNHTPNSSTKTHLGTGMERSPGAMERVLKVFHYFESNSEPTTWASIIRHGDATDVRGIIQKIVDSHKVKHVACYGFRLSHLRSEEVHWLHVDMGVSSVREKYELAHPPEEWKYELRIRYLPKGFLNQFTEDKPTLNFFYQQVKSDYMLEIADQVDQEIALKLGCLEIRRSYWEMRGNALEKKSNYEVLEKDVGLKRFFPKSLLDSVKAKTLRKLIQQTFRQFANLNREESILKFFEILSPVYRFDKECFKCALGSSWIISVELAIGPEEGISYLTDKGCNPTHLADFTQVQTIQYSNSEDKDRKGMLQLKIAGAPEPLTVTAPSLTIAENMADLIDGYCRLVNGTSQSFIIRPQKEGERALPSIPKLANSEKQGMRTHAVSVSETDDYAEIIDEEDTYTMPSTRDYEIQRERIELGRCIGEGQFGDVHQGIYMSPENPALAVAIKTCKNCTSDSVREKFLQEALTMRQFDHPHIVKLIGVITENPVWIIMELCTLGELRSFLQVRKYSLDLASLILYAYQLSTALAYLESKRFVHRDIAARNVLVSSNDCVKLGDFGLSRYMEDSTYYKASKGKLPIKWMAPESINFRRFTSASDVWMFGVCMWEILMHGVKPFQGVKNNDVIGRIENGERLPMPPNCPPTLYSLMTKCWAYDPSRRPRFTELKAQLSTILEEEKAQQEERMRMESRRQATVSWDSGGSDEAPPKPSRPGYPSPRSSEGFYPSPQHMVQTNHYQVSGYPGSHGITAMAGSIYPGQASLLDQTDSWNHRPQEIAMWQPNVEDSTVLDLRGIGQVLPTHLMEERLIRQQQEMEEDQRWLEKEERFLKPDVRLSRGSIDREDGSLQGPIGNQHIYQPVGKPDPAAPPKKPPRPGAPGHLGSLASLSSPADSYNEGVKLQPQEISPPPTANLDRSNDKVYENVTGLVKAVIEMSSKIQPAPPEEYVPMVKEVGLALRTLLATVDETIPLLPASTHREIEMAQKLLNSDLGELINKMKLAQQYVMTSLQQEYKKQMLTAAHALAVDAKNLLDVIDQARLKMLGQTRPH
Insulin receptor, sequence (P06213 28-758 limits assumed): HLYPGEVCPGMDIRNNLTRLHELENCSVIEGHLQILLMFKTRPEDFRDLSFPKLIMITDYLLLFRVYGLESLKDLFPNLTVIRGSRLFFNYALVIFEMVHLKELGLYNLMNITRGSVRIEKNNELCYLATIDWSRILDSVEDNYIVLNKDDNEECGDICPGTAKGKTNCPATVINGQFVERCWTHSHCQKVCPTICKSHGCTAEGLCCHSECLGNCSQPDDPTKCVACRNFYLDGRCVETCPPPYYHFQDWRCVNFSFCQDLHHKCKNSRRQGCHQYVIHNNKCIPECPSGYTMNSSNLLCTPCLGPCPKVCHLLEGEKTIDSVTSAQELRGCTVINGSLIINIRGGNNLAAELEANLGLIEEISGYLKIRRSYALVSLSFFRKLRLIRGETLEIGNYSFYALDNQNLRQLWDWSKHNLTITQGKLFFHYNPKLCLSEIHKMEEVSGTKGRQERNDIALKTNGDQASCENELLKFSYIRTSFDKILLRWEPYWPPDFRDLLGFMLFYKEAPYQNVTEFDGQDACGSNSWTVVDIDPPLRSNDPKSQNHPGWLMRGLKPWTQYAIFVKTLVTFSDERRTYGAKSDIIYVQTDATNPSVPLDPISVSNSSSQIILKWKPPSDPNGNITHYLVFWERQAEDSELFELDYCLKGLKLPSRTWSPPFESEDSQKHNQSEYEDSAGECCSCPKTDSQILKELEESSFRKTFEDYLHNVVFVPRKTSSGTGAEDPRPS
Insulin receptor, sequence (P06213 763-1382 limits assumed): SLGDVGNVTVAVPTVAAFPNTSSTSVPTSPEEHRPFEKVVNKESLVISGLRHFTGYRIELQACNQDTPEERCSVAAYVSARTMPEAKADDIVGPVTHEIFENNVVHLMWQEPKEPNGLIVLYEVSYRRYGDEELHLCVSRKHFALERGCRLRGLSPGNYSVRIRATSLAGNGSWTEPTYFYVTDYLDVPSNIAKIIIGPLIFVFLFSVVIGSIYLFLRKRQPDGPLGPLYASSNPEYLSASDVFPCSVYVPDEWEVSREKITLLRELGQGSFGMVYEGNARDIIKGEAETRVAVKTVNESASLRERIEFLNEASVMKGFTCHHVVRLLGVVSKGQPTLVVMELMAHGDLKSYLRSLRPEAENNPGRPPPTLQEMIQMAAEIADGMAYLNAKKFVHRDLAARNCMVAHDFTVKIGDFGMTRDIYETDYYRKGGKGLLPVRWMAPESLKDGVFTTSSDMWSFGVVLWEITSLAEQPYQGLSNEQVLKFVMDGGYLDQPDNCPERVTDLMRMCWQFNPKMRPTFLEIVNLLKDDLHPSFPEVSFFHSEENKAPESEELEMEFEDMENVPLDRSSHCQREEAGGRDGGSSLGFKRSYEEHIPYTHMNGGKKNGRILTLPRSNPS

IC50 (Focal adhesion kinase 1 [1])	IC50 [2]	IC50 (Focal adhesion kinase 1 [3])	IC50 [4]	SMILES	also measured
17 nM	0.2 nM			COc1cc(Nc2ncc3ccc(-c4ccccc4)n3n2)cc(OC)c1OC	
21 nM	250 nM			COc1cc(C2CCN(CC(N)=O)CC2)ccc1Nc1ncc2ccc(-c3ccccc3OC)n2n1	
55 nM	0.6 nM	690 nM	41 nM	COc1ccccc1-c1ccc2cnc(Nc3ccc(C4CCN(CC(N)=O)CC4)cc3)nn12	
14 nM	2 nM	610 nM	15 nM	CN(c1ccccc1-c1ccc2cnc(Nc3ccc(C4CCN(CC(N)=O)CC4)cc3)nn12)S(C)(=O)=O	half-life [5]: < 5 min; half-life [6]: 11 min; half-life [7]: 6 min; half-life [8]: 15 min
5.7 nM	0.64 nM	1340 nM	90 nM	CC(C)(C)NS(=O)(=O)c1cccc(-c2ccc3cnc(Nc4ccc(C5CCN(CC(N)=O)CC5)cc4)nn23)c1	
39 nM	0.77 nM	1190 nM	62 nM	COc1ccc(-c2ccc3cnc(Nc4ccc(C5CCN(CC(N)=O)CC5)cc4)nn23)cn1	
21 nM	0.22 nM	660 nM	60 nM	CS(=O)(=O)Nc1cccc(-c2ccc3cnc(Nc4ccc(C5CCN(CC(N)=O)CC5)cc4)nn23)c1	
48 nM	0.09 nM	> 10000 nM	45 nM	CN(c1cccc(-c2ccc3cnc(Nc4ccc(C5CCN(CC(N)=O)CC5)cc4)nn23)c1)S(C)(=O)=O	
33 nM	0.27 nM	1390 nM	27 nM	NC(=O)CN1CCC(c2ccc(Nc3ncc4ccc(-c5cccc(CO)c5)n4n3)cc2)CC1	
114 nM	0.22 nM	> 10000 nM	29 nM	CS(=O)(=O)c1ccc(-c2ccc3cnc(Nc4ccc(C5CCN(CC(N)=O)CC5)cc4)nn23)cc1	
25 nM	0.52 nM	1010 nM	58 nM	CS(=O)(=O)c1cccc(-c2ccc3cnc(Nc4ccc(C5CCN(CC(N)=O)CC5)cc4)nn23)c1	
14 nM	2.1 nM	750 nM	38 nM	CN(c1ncccc1-c1ccc2cnc(Nc3ccc(C4CCN(CC(N)=O)CC4)cc3)nn12)S(C)(=O)=O	
2040 nM	16 nM	> 10000 nM	1140 nM	COc1cccnc1-c1ccc2cnc(Nc3ccc(C4CCN(CC(N)=O)CC4)cc3)nn12	
> 10000 nM	85 nM			NC(=O)CN1CCC(c2ccc(Nc3ncc4ccc(-c5ncccn5)n4n3)cc2)CC1	
551 nM	8.9 nM		282 nM	NC(=O)CN1CCC(c2ccc(Nc3ncc4ccc(-c5cnccn5)n4n3)cc2)CC1	
122 nM	13 nM		> 1000 nM	NC(=O)CN1CCC(c2ccc(Nc3ncc4ccc(-c5cccc6c5OC(F)(F)O6)n4n3)cc2)CC1	
> 1000 nM	2900 nM			CN(C)Cc1ccc(-c2ccc3cnc(Nc4ccc(C5CCN(CC(N)=O)CC5)cc4)nn23)cc1	
205 nM				CS(=O)(=O)N1Cc2cccc(-c3ccc4cnc(Nc5ccc(C6CCN(CC(N)=O)CC6)cc5)nn34)c2C1	
167 nM	6.3 nM		170 nM	NC(=O)CN1CCC(c2ccc(Nc3ncc4ccc(-c5cccc6cccnc56)n4n3)cc2)CC1	
11 nM		1230 nM		Cc1cc(-c2ccccc2N(C)S(C)(=O)=O)n2nc(Nc3ccc(C4CCN(CC(N)=O)CC4)cc3)ncc12	
5 nM	2.5 nM	420 nM	12 nM	CN(c1ccccc1-c1cc(Cl)c2cnc(Nc3ccc(C4CCN(CC(N)=O)CC4)cc3)nn12)S(C)(=O)=O	IC50 (Insulin receptor): 380 nM; IC50 [9]: 2.9 nM; inhibition in vivo at 55 mg/kg (Mus musculus [10]): > 75%; fraction unbound [11]: 0.006; inhibition in vivo at 55 mg/kg (Mus musculus [12]): > 75%; bioavailability [13]: 12%; AUC(0-inf) [14]: 832 ng·h/mL; Tmax [15]: 132 min; Cmax [16]: 185 ng/mL; clearance [17]: 14 mL/min/kg; Vd [18]: 1.3 L/kg; AUC(0-t) [19]: 1320 ng·h/mL; half-life [20]: 60 min; half-life [5]: 11 min; half-life [6]: 17 min; half-life [7]: 21 min; half-life [8]: 26 min
